Results: patent US5149719A, “Composition for transdermal penetration of medicaments” (priority 1990, dated 1992)
Structures can show the parent of a compound that is named as a salt.

Assays:
[1] = for amount of higher alcohol necessary to reach a small permanent visible excess: H^3-mannitol in 30% v/v aqueous ethanol
Description: Trace amounts of H^3 -mannitol were added to 10 ml aliquots of a 33% (v/v) ethanol/water solution. The saturating amount of octanol for this solution was determined to be 45 μl per aliquot. Varying amounts of octanol were added to each aliquot as shown below. The aliquots were warmed and kept at 32° C. until use.

in vitro = settings: guinea pig, Permeability Coefficient (cm/hr) ± SEM, saturated dodecanol, Example 13

Row | Compound | amount of higher alcohol necessary to reach a small permanent visible excess [1] | also measured
1 | CCCCCCCCCCCCCCCCO [hexadecanol] | ~0.1 mg/mL | 
2 | CCCCCCCCCCCCCCO [tetradecanol] | ~4 mg/mL | 
3 | CCCCCCCCCCCCO [dodecanol] | ~10 μl/ml | 
4 | COc1ccc([C@@H]2Sc3ccccc3N(CCN(C)C)C(=O)[C@@H]2OC(C)=O)cc1 [Diltiazem Hydrochloride] |  | Papp at 8 h (in vitro; 20% v/v ethanol): 0.0336 ×10⁻⁶ cm/s; Papp at 8 h (in vitro; 30% v/v ethanol): 0.0925 ×10⁻⁶ cm/s; Papp at 8 h (in vitro; 40% v/v ethanol): 0.319 ×10⁻⁶ cm/s; Papp at 8 h (in vitro; 50% v/v ethanol): 0.294 ×10⁻⁶ cm/s; Papp at 8 h (in vitro; no ethanol): 0.00764 ×10⁻⁶ cm/s
5 | CCCCCCCCCCCCCCCCCCO [octadecanol] | ~0.1 mg/mL | 
6 | CCCCCCCCCCCCCO [tridecanol] | ~4 mg/mL | 

Now from value to molecule, other results behind:

Row | amount of higher alcohol necessary to reach a small permanent visible excess [1] | Compound | also measured
7 | ~10 μl/ml | CCCCCCCCCCO [decanol] | 
8 | 100 μl/ml | CCCCCO [pentanol] | 
9 | ~20 μl/ml | CCCCCCCCO [octanol] | saturating amount of octanol ([1]; 10 ml aliquots of 33% (v/v) ethanol/water with trace H^3-mannitol): 45 μl per aliquot
